Patent US12692253B2, “Antimicrobial compounds and methods” (Curza Global, LLC, priority 2019, dated 2026)
Read-outs that look alike come from different tables or passages of the source.

How the values were obtained:
[1] = tested on: E. coli S30 extract (bacterial protein synthesis); test: E. coli S30 extract coupled transcription-translation luciferase assay (inhibition of bacterial protein synthesis); assay type: biochemical; conditions: read-out: S30 IC50 (μM/% inhib.)
Procedure, shortened: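 Luciferase luminescence quantified inhibition of protein synthesis relative to water controls, with no-DNA reactions giving background. Compounds in 2-fold serial dilution (8 levels) were incubated 1 hour at 37 °C with E. coli S30 extract, amino acids and pBESTluc plasmid, then chilled to stop.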

A. baumannn (Ab) = test: Broth microdilution minimum inhibitory concentration (MIC), CLSI; assay type: cell-based; conditions: read-out: Ab + bicarb MIC
Procedure, shortened: (§1)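 Bacteria grown at 35±2 °C to 0.5 McFarland turbidity were added at 5×10^4 CFU/well to triplicate two-fold compound series (8 dilutions). Media were cation-adjusted Mueller-Hinton broth alone or with sodium bicarbonate (6.25 or 25 mM final) or heat-inactivated human serum (0–50%), per modified CLSI method.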

E. coli (Ec) = test: as above; assay type: cell-based; conditions: Escherichia coli, read-out: E. coli + bicarb MIC
Procedure, shortened: as §1

S. aureus (Sa) = test: as above; assay type: cell-based; conditions: Staphylococcus aureus, read-out: Sa + bicarb MIC
Procedure, shortened: as §1

P. aeruginosa (Pa) = test: as above; assay type: cell-based; conditions: Pseudomonas aeruginosa, read-out: Pa MIC + bicarb
Procedure, shortened: as §1

E. faecalis (Ef) = test: as above; assay type: cell-based; conditions: Enterococcus faecalis, read-out: Ef + bicarb MIC
Procedure, shortened: as §1

[2] = target: Rabbit Reticulocyte Lysate (eukaryotic protein synthesis); test: Rabbit reticulocyte lysate luciferase assay (inhibition of eukaryotic protein synthesis); assay type: biochemical; conditions: read-out: Rabbit reticulocyte IC50 (μM/% inhib.)
Procedure, shortened: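 Percent inhibition calculated against water-only controls from luminescence; background set by lysate lacking RNA. Compounds, 8-point 2-fold titration, incubated 90 minutes at 30° C with nuclease-treated rabbit reticulocyte lysate programmed with luciferase control RNA plus complete amino acids.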

[3] = class by IC50 or % inhibition @ 1 μM
[4] = growth medium supplemented with sodium bicarbonate
[5] = A. baumannn, growth medium with sodium bicarbonate
[6] = growth medium with sodium bicarbonate

SMILES	IC50 [1, 3] [µM]	MIC (A. baumannn (Ab); Acinetobacter baumannii) [mg/L]	MIC (E. coli (Ec); [4]) [mg/L]	MIC (S. aureus (Sa); [4]) [mg/L]	MIC (P. aeruginosa (Pa); [4]) [mg/L]	MIC (E. faecalis (Ef); [4]) [mg/L]	IC50 [2, 3] [µM]	IC50 ([1]; % inhibition @ 1 μM) [µM]	MIC (A. baumannn (Ab); [5]) [mg/L]	MIC (E. coli (Ec); [6]) [mg/L]	MIC (S. aureus (Sa); [6]) [mg/L]	MIC (P. aeruginosa (Pa); [6]) [mg/L]	MIC (E. faecalis (Ef); [6]) [mg/L]	IC50 ([2]; % inhibition @ 1 μM) [µM]
CC(C)(N)C(=O)N1CCN(C(=O)Nc2ccn(-c3ccc(C(N)C(=O)N4C[C@@H]5[C@@H](CN)[C@@H]5C4)cc3)c(=O)n2)CC1 (some centres unmarked) [Compound 137]	0.5 to 1	> 32	> 32	> 32	> 32	> 32	≥ 1							
CC(C)(N)C(=O)N1CCN(C(=O)Nc2ccn(-c3ccc(CCCN4CC5CC5(CN)C4)cc3)c(=O)n2)CC1 (centres unmarked) [Compound 184]								≥ 1	> 32	< 8	< 8	> 32	8 to 32	≥ 1
CC(CN1C[C@@H]2[C@@H](CN)[C@@H]2C1)c1ccc(-n2ccc(NC(=O)N3CCN(C(=O)C(C)(C)N)CC3)nc2=O)cc1 (some centres unmarked) [Compound 121]	0.5 to 1	> 32	< 8	< 8	8 to 32	8 to 32	≥ 1							
NC[C@@H]1[C@H]2CN(CCc3ccc(-n4ccc(NC(=O)N5CCC6(CC5)CNC6)nc4=O)cc3)C[C@@H]12 [Compound 147]	≥ 1	> 32	< 8	< 8	> 32	> 32	≥ 1							
CC(C)(N)C(=O)N1CCN(C(=O)Nc2ccn(-c3ccc(OCCN4C[C@@H]5[C@@H](CN)[C@@H]5C4)cc3)c(=O)n2)CC1 [Compound 187]								< 0.5	8 to 32	< 8	< 8	8 to 32	< 8	≥ 1
CC(Cc1ccc(-n2ccc(NC(=O)N3CCN(C(=O)C(C)(C)N)CC3)nc2=O)cc1)NC1CC2(CC(N)C2)C1 (centres unmarked) [Compound 176]								≥ 1	> 32	< 8	< 8	> 32	8 to 32	≥ 1
CC(Cc1ccc(-n2ccc(NC(=O)N3CCN(C(=O)C4(N)CC4)CC3)nc2=O)cc1)N1C[C@@H]2[C@@H](CN)[C@@H]2C1 (some centres unmarked) [Compound 226]								≥ 1	> 32	> 32	> 32	> 32	> 32	≥ 1
CC(Cc1ccc(-n2ccc(NC(=O)N3CCN(C(=O)[C@@](C)(N)CO)CC3)nc2=O)cc1)N1CCC2(CC1)CC(N)C2 (some centres unmarked) [Compound 115]	< 0.5	> 32	< 8	< 8	> 32	< 8	≥ 1							
CC(N)[C@H]1[C@@H]2CN(CCc3ccc(-n4ccc(NC(=O)N5CCN(C(=O)C(C)(C)N)CC5)nc4=O)cc3)C[C@@H]21 (some centres unmarked) [Compound 134]	< 0.5	8 to 32	< 8	< 8	8 to 32	< 8	≥ 1							
N[C@@H]1[C@H]2CN(Cc3ccc(-n4ccc(NC(=O)N5CCC6(CCNC6)C5)nc4=O)cc3)C[C@@H]12 (some centres unmarked) [Compound 63]	≥ 1	> 32	> 32	> 32	> 32	> 32	≥ 1							
CN(Cc1ccc(-n2ccc(NC(=O)N3CCN(C(=O)C(C)(C)N)CC3)nc2=O)cc1)C12CC(CN)(C1)C2 [Compound 174]								≥ 1	> 32	< 8	< 8	> 32	8 to 32	≥ 1
CC(Cc1ccc(-n2ccc(NC(=O)N3CCN(C(=O)C(C)(C)N)CC3)nc2=O)cc1)N(C)C1CC2(CC(N)C2)C1 (centres unmarked) [Compound 191]								≥ 1	8 to 32	< 8	< 8	8 to 32	< 8	≥ 1
CC(C)(N)C(=O)N1CCN(C(=O)Nc2ccn(-c3ccc(CCN4CC5(CCC5N)C4)cc3)c(=O)n2)CC1 (centres unmarked) [Compound 107]	≥ 1	> 32	< 8	< 8	> 32	8 to 32	≥ 1							
CC(Cc1ccc(-n2ccc(NC(=O)N3CCN(C(=O)CN)CC3)nc2=O)cc1)N1C[C@@H]2[C@@H](CN)[C@@H]2C1 (some centres unmarked) [Compound 227]								0.5 to 1	> 32	< 8	< 8	> 32	< 8	≥ 1
CC(Cc1ccc(-n2ccc(NC(=O)N3CCN(C(=O)[C@H]4C[C@@H](N)C4)CC3)nc2=O)cc1)N1C[C@@H]2[C@@H](CN)[C@@H]2C1 (some centres unmarked) [Compound 232]								≥ 1	> 32	< 8	< 8	> 32	> 32	≥ 1
CC(Cc1ccc(-n2ccc(NC(=O)N3CCN(C(=O)C(C)(C)N)CC3)nc2=O)cc1)NCC1[C@H]2CNC[C@@H]12 (some centres unmarked) [Compound 204]								≥ 1	> 32	< 8	< 8	> 32	> 32	≥ 1
CCN(Cc1ccc(-n2ccc(NC(=O)N3CCN(C(=O)C(C)(C)N)CC3)nc2=O)cc1)C12CCC(N)(CC1)C2 [Compound 166]								< 0.5	8 to 32	< 8	< 8	> 32	< 8	≥ 1
CC(=O)NC[C@@H]1[C@H]2CN(C(C)Cc3ccc(-n4ccc(NC(=O)N5CCN(C(=O)C(C)(C)N)CC5)nc4=O)cc3)C[C@@H]12 (some centres unmarked) [Compound 212]								≥ 1	> 32	> 32	> 32	> 32	> 32	≥ 1
NCC[C@H](N)C(=O)N1CCN(C(=O)Nc2ccn(-c3ccc(CN4C[C@@H]5[C@@H](N)[C@@H]5C4)cc3)c(=O)n2)CC1 [Compound 41]	≥ 1	> 32	> 32	> 32	> 32	> 32	≥ 1							
CC(Cc1ccc(-n2ccc(NC(=O)N3CCN(C(=O)C(C)(C)N)CC3)nc2=O)cc1)N1CCC2(CC1)CC(N)C2 (centres unmarked) [Compound 114]	< 0.5	8 to 32	< 8	< 8	8 to 32	< 8	≥ 1							
